Measured values from PubChem BioAssay AID2060888 (Molecular Pharmacology Branch, DTP, NCI, 2025).

System: 695427-040-R-J1-PDC complex spheroid viability
Assay: Anticancer human tumor 695427-040-R-J1-PDC patient-derived colon adenocarcinoma cell line growth inhibition [RAS]
Details: for IC50: curve of first compound; for viability, T/C: stronger effect = lower value
Outline: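 Multi-cell-type spheroids: tumor cells plus HUVEC endothelial cells and mesenchymal stem cells. RAS-pathway inhibitors were combined with targeted agents, each dosed in half-log steps down from clinical Cmax, or from 10 microM when Cmax was unknown.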

[1] = second compound 0.00316 µM, first compound 0.0316 µM
[2] = second compound 0.00316 µM, first compound 0.1 µM
[3] = second compound 0.00316 µM, first compound 0.316 µM
[4] = second compound 0.00316 µM, first compound 1 µM
[5] = second compound 0.00316 µM, first compound 3.16 µM
[6] = second compound 0.00316 µM, first compound 10 µM
[7] = second compound 0.01 µM, first compound 0.0316 µM
[8] = second compound 0.01 µM, first compound 0.1 µM
[9] = second compound 0.01 µM, first compound 0.316 µM
[10] = second compound 0.01 µM, first compound 1 µM
[11] = second compound 0.01 µM, first compound 3.16 µM
[12] = second compound 0.01 µM, first compound 10 µM
[13] = second compound 0.0316 µM, first compound 0.0316 µM
[14] = second compound 0.0316 µM, first compound 0.1 µM
[15] = second compound 0.0316 µM, first compound 0.316 µM
[16] = second compound 0.0316 µM, first compound 1 µM
[17] = second compound 0.0316 µM, first compound 3.16 µM
[18] = second compound 0.0316 µM, first compound 10 µM
[19] = second compound 0.1 µM, first compound 0.0316 µM
[20] = second compound 0.1 µM, first compound 0.1 µM
[21] = second compound 0.1 µM, first compound 0.316 µM
[22] = second compound 0.1 µM, first compound 1 µM
[23] = second compound 0.1 µM, first compound 3.16 µM
[24] = second compound 0.1 µM, first compound 10 µM
[25] = second compound 0.316 µM, first compound 0.0316 µM
[26] = second compound 0.316 µM, first compound 0.1 µM
[27] = second compound 0.316 µM, first compound 0.316 µM
[28] = second compound 0.316 µM, first compound 1 µM
[29] = second compound 0.316 µM, first compound 3.16 µM
[30] = second compound 0.316 µM, first compound 10 µM
[31] = second compound 1 µM, first compound 0.0316 µM
[32] = second compound 1 µM, first compound 0.1 µM
[33] = second compound 1 µM, first compound 0.316 µM
[34] = second compound 1 µM, first compound 1 µM
[35] = second compound 1 µM, first compound 3.16 µM
[36] = second compound 1 µM, first compound 10 µM
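Also: viability read after seven days of drug exposure.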
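For viability, T/C in this document: 100% = DMSO vehicle control viability.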

`CC(C)NCC(C(=O)N1CCN(c2ncnc3c2C(C)CC3O)CC1)c1ccc(Cl)cc1` (stereo unspecified) + C=CC(=O)N1CCN(c2nc(OCC3CCCN3C)nc3c(F)c(-c4nc(N)cc(C)c4C(F)(F)F)c(Cl)cc23)C(C)C1 showed an IC50 (second compound 0.00316 µM) greater than 10 µM, an IC50 (second compound 0.01 µM) greater than 10 µM and an IC50 (second compound 0.0316 µM) greater than 10 µM. For the same compound, the IC50 (second compound 0.1 µM) was greater than 10 µM, the IC50 (second compound 0.316 µM) was greater than 10 µM and the IC50 (second compound 1 µM) was greater than 10 µM. It also gave a viability, T/C [1] of 98%, a viability, T/C [2] of 95.2% and a viability, T/C [3] of 88.2%. The viability, T/C [4] was 84.7%, the viability, T/C [5] was 93.6% and the viability, T/C [6] was 108%. For the same compound, the viability, T/C [7] was 107%, the viability, T/C [8] was 102% and the viability, T/C [9] was 88.5%. It also gave a viability, T/C [10] of 93.3%, a viability, T/C [11] of 101% and a viability, T/C [12] of 111%. For the same compound, the viability, T/C [13] was 109%, the viability, T/C [14] was 91.1% and the viability, T/C [15] was 91.7%. For the same compound, the viability, T/C [16] was 87.8%, the viability, T/C [17] was 102% and the viability, T/C [18] was 106%. For the same compound, the viability, T/C [19] was 98.7%, the viability, T/C [20] was 91.5% and the viability, T/C [21] was 81.3%. The viability, T/C [22] was 83.6%, the viability, T/C [23] was 105% and the viability, T/C [24] was 111%. The viability, T/C [25] was 107%, the viability, T/C [26] was 88.6% and the viability, T/C [27] was 91.4%. The viability, T/C [28] was 95.2%, the viability, T/C [29] was 102% and the viability, T/C [30] was 107%. For the same compound, the viability, T/C [31] was 91.7%, the viability, T/C [32] was 94.6% and the viability, T/C [33] was 89%. It also gave a viability, T/C [34] of 79.7%, a viability, T/C [35] of 81.5% and a viability, T/C [36] of 89.5%.
`CC(C)n1nc(-c2ccc3oc(N)nc3c2)c2c(N)ncnc21` + C=CC(=O)N1CCN(c2nc(OCC3CCCN3C)nc3c(F)c(-c4nc(N)cc(C)c4C(F)(F)F)c(Cl)cc23)C(C)C1 gave an IC50 (second compound 0.00316 µM) greater than 0.1 µM, an IC50 (second compound 0.01 µM) greater than 0.1 µM and an IC50 (second compound 0.0316 µM) greater than 0.1 µM. It also gave an IC50 (second compound 0.1 µM) greater than 0.1 µM, an IC50 (second compound 0.316 µM) greater than 0.1 µM and an IC50 (second compound 1 µM) greater than 0.1 µM. It also gave a viability, T/C (second compound 0.00316 µM, first compound 0.000316 µM) of 98.5%, a viability, T/C (second compound 0.00316 µM, first compound 0.001 µM) of 96.5% and a viability, T/C (second compound 0.00316 µM, first compound 0.00316 µM) of 82.4%. It also gave a viability, T/C (second compound 0.00316 µM, first compound 0.01 µM) of 80.2%, a viability, T/C [1] of 72.2% and a viability, T/C [2] of 61.8%. For the same compound, the viability, T/C (second compound 0.01 µM, first compound 0.000316 µM) was 106%, the viability, T/C (second compound 0.01 µM, first compound 0.001 µM) was 87.4% and the viability, T/C (second compound 0.01 µM, first compound 0.00316 µM) was 96.5%. The viability, T/C (second compound 0.01 µM, first compound 0.01 µM) was 79.9%, the viability, T/C [7] was 70.9% and the viability, T/C [8] was 58.1%. The viability, T/C (second compound 0.0316 µM, first compound 0.000316 µM) was 101%, the viability, T/C (second compound 0.0316 µM, first compound 0.001 µM) was 89.8% and the viability, T/C (second compound 0.0316 µM, first compound 0.00316 µM) was 86%. For the same compound, the viability, T/C (second compound 0.0316 µM, first compound 0.01 µM) was 75%, the viability, T/C [13] was 76.5% and the viability, T/C [14] was 65%. For the same compound, the viability, T/C (second compound 0.1 µM, first compound 0.000316 µM) was 103%, the viability, T/C (second compound 0.1 µM, first compound 0.001 µM) was 96.1% and the viability, T/C (second compound 0.1 µM, first compound 0.00316 µM) was 90%. The viability, T/C (second compound 0.1 µM, first compound 0.01 µM) was 77%, the viability, T/C [19] was 70.4% and the viability, T/C [20] was 66.7%. It also gave a viability, T/C (second compound 0.316 µM, first compound 0.000316 µM) of 101%, a viability, T/C (second compound 0.316 µM, first compound 0.001 µM) of 88.6% and a viability, T/C (second compound 0.316 µM, first compound 0.00316 µM) of 88.8%. It also gave a viability, T/C (second compound 0.316 µM, first compound 0.01 µM) of 84%, a viability, T/C [25] of 69.9% and a viability, T/C [26] of 61.6%. It also gave a viability, T/C (second compound 1 µM, first compound 0.000316 µM) of 98.4%, a viability, T/C (second compound 1 µM, first compound 0.001 µM) of 87.1% and a viability, T/C (second compound 1 µM, first compound 0.00316 µM) of 88.3%. For the same compound, the viability, T/C (second compound 1 µM, first compound 0.01 µM) was 78.3%, the viability, T/C [31] was 72.6% and the viability, T/C [32] was 63.4%.
Compound `C[C@@H](NC(=O)c1ncnc(N)c1Cl)c1ncc(C(=O)Nc2cc(C(F)(F)F)c(Cl)cn2)s1` + C=CC(=O)N1CCN(c2nc(OCC3CCCN3C)nc3c(F)c(-c4nc(N)cc(C)c4C(F)(F)F)c(Cl)cc23)C(C)C1 has an IC50 (second compound 0.00316 µM) greater than 10 µM, an IC50 (second compound 0.01 µM) greater than 10 µM and an IC50 (second compound 0.0316 µM) greater than 10 µM. The IC50 (second compound 0.1 µM) was greater than 10 µM, the IC50 (second compound 0.316 µM) was greater than 10 µM and the IC50 (second compound 1 µM) was greater than 10 µM. The viability, T/C [1] was 108%, the viability, T/C [2] was 109% and the viability, T/C [3] was 111%. For the same compound, the viability, T/C [4] was 105%, the viability, T/C [5] was 99.7% and the viability, T/C [6] was 75.2%. For the same compound, the viability, T/C [7] was 121%, the viability, T/C [8] was 109% and the viability, T/C [9] was 114%. It also gave a viability, T/C [10] of 103%, a viability, T/C [11] of 96.2% and a viability, T/C [12] of 75.9%. It also gave a viability, T/C [13] of 107%, a viability, T/C [14] of 99.8% and a viability, T/C [15] of 104%. It also gave a viability, T/C [16] of 101%, a viability, T/C [17] of 94.4% and a viability, T/C [18] of 75.9%. It also gave a viability, T/C [19] of 113%, a viability, T/C [20] of 105% and a viability, T/C [21] of 99.8%. The viability, T/C [22] was 101%, the viability, T/C [23] was 98.4% and the viability, T/C [24] was 73.1%. It also gave a viability, T/C [25] of 110%, a viability, T/C [26] of 105% and a viability, T/C [27] of 108%. The viability, T/C [28] was 105%, the viability, T/C [29] was 103% and the viability, T/C [30] was 76.6%. It also gave a viability, T/C [31] of 108%, a viability, T/C [32] of 94.4% and a viability, T/C [33] of 103%. The viability, T/C [34] was 95.5%, the viability, T/C [35] was 92.6% and the viability, T/C [36] was 72.9%.
